According to ChEMBL document CHEMBL4433266, “Design, synthesis and antimycobacterial activity of benzoxazinone derivatives and open-ring analogues: Preliminary data and computational analysis” (Bioorg Med Chem Lett, 2019):
≈ marks a conversion by molar mass, not a printed value.

Experiments:
Format in all cases: functional
[1] = system: Mycobacterium tuberculosis; test: Antimycobacterial activity against Isoniazid-resistant Mycobacterium tuberculosis ATCC 35822 assessed as inhibition of bacterial cell growth incubated for 7 days by resazurin microtiter assay; settings: ATCC 35822, 168 h
[2] = system: Mycobacterium tuberculosis; test: Antimycobacterial activity against Pyrazinamide-resistant Mycobacterium tuberculosis ATCC 35828 assessed as inhibition of bacterial cell growth incubated for 7 days by resazurin microtiter assay; settings: ATCC 35828, 168 h
[3] = system: Mycobacterium tuberculosis; test: Antimycobacterial activity against Rifampicin-resistant Mycobacterium tuberculosis ATCC 35838 assessed as inhibition of bacterial cell growth incubated for 7 days by resazurin microtiter assay; settings: ATCC 35838, 168 h
[4] = system: Mycobacterium tuberculosis; test: Antimycobacterial activity against Streptomycin-resistant Mycobacterium tuberculosis ATCC 35820 assessed as inhibition of bacterial cell growth incubated for 7 days by resazurin microtiter assay; settings: ATCC 35820, 168 h

With COC(=O)/C=C1\Nc2ccccc2OC1=O the MIC [1] was greater than 146 µM, the MIC [2] was 4.5 µM (≈ 0.986 µg/mL) and the MIC [3] was 9.1 µM (≈ 1.99 µg/mL). It also gave an MIC [4] of 4.5 µM (≈ 0.986 µg/mL).

COC(=O)/C=C1\Nc2cc(Cl)ccc2OC1=O gave an MIC [1] greater than 126 µM, an MIC [2] of 31 µM (≈ 7.86 µg/mL) and an MIC [3] of 63 µM (≈ 16 µg/mL). The MIC [4] was 63 µM (≈ 16 µg/mL).

COC(=O)/C=C1\Nc2ccc(Cl)cc2OC1=O gave an MIC [1] greater than 126 µM, an MIC [2] of 3.9 µM (≈ 0.989 µg/mL) and an MIC [3] of 3.9 µM (≈ 0.989 µg/mL). For the same molecule, the MIC [4] was 3.9 µM (≈ 0.989 µg/mL).

O=C1Oc2ccccc2N/C1=C\C(=O)c1c[nH]c2ccccc12 was tested, and the MIC [1] was greater than 105 µM, the MIC [2] was 3.3 µM (≈ 1 µg/mL) and the MIC [3] was 3.3 µM (≈ 1 µg/mL). For the same molecule, the MIC [4] was 3.3 µM (≈ 1 µg/mL).

Molecule O=C1Oc2ccccc2N/C1=C\C(=O)c1cccs1 has an MIC [1] of 118 µM (≈ 32 µg/mL), an MIC [2] of 14.7 µM (≈ 3.99 µg/mL) and an MIC [3] of 14.7 µM (≈ 3.99 µg/mL). For the same molecule, the MIC [4] was 14.7 µM (≈ 3.99 µg/mL).

Molecule O=C1Oc2ccccc2N/C1=C\C(=O)N1CCOCC1 has an MIC [1] greater than 117 µM, an MIC [2] of 3.6 µM (≈ 0.987 µg/mL) and an MIC [3] of 7.3 µM (≈ 2 µg/mL). For the same molecule, the MIC [4] was 7.3 µM (≈ 2 µg/mL).

For O=C(NNC(=O)c1ccncc1)C(=O)Nc1ccccc1O, the MIC [1] was greater than 106 µM, the MIC [2] was 6.7 µM (≈ 2.01 µg/mL) and the MIC [3] was 3.3 µM (≈ 0.991 µg/mL). For the same molecule, the MIC [4] was 26.7 µM (≈ 8.02 µg/mL).

O=C(NNC(=O)c1ccncc1)C(=O)Nc1ccc(Cl)cc1O gave an MIC [1] greater than 96 µM, an MIC [2] of 12 µM (≈ 4.02 µg/mL) and an MIC [3] of 12 µM (≈ 4.02 µg/mL). It also gave an MIC [4] of 24 µM (≈ 8.03 µg/mL).

With O=C(NNC(=O)c1ccncc1)C(=O)Nc1cc(Cl)ccc1O the MIC [1] was greater than 96 µM, the MIC [2] was 12 µM (≈ 4.02 µg/mL) and the MIC [3] was 12 µM (≈ 4.02 µg/mL). The MIC [4] was 24 µM (≈ 8.03 µg/mL).

With NNC(=O)c1ccncc1 [ISONIAZID] the MIC [1] was greater than 233 µM, the MIC [2] was 1.8 µM (≈ 0.247 µg/mL) and the MIC [3] was 1.8 µM (≈ 0.247 µg/mL). For the same molecule, the MIC [4] was 1.8 µM (≈ 0.247 µg/mL).
